Patent US6107316A, “Method for treating protozoal infections” (priority 1998, dated 2000)
Converted amounts (≈) assume the structure as drawn. Where two headings read alike, the source gives them in different places.

Columns and labels:
Tetrahymena pyriformis = experiment: in vitro growth inhibitory activity against the ciliate Tetrahymena pyriformis; assay type: cell-based, Tetrahymena pyriformis (ATCC strain 30005); details: read-out: EC50 Tetrahymena pyriformis
Protocol: Compounds were evaluated for in vitro growth inhibitory activity against the ciliate Tetrahymena pyriformis, which was used as an indicator organism for the Apicomplexia since by several criteria the ciliates and Apicomplexa are closely related (Edlind T. D. et al., Mol. Phylogenet. Evol. vol. 5, pp. 359-367, 1996). T. pyriformis (ATCC strain 30005) was grown in 1 ml ATCC medium 357 at 25° C. in 4 ml polyallomer culture tubes without shaking. Compounds were dissolved in dimethylsufoxide (DMSO) and added to the cultures (containing 3,000 cells/ml) such that the final DMSO concentration was 0.1-0.3%. […] Parasitol. vol. 84, pp. 355-370, 1996) and Cryptosporidium parvum (Arrowood et al., FEMS Microbial. Lett., vol. 136, pp. 245-249, 1996) were tested for comparison.

Cryptosporidium parvum = details: Arrowood et al., 1996; cited from earlier work
Toxoplasma gondii = details: Stokkermans et al., 1996; cited from earlier work

SMILES	EC50 (Tetrahymena pyriformis; 24 h)	in vitro activity against Cryptosporidium parvum (Cryptosporidium parvum)	in vitro activity against Toxoplasma gondii (Toxoplasma gondii)	EC50 (Tetrahymena pyriformis; 24 hours, 25° C.)
CCC(CC)Nc1c([N+](=O)[O-])cc(C)c(C)c1[N+](=O)[O-] [pendimethalin]	2 µg/mL (≈ 7.11 µM)	have in vitro activity	have in vitro activity	
CCCN(CCC)c1c([N+](=O)[O-])cc(C(F)(F)F)cc1[N+](=O)[O-] [trifluralin]		have in vitro activity	have in vitro activity	> 6 µg/mL
